pKi: −log10 of the molar value.

This is an account of results in patent publication US6653300B2, “Pyrazole compounds useful as protein kinase inhibitors” (Vertex Pharmaceuticals Incorporated, priority 2000, dated 2003).

The target in series [1] is activated ERK2 (Homo sapiens, UniProt P28482). Put plainly: ERK inhibition assay (spectrophotometric coupled-enzyme assay). It is filed as biochemical. Conditions: 10 nM activated ERK2, 65 μM ATP, 30° C.; read-out: Ki values for ERK-2. The procedure: Compounds were assayed for the inhibition of ERK2 by a spectrophotometric coupled-enzyme assay (Fox et al (1998) Protein Sci 7, 2249).

Series [2] has as its target T1, Aurora-2 (Homo sapiens, UniProt O14965).
T1 sequence (O14965 1-403): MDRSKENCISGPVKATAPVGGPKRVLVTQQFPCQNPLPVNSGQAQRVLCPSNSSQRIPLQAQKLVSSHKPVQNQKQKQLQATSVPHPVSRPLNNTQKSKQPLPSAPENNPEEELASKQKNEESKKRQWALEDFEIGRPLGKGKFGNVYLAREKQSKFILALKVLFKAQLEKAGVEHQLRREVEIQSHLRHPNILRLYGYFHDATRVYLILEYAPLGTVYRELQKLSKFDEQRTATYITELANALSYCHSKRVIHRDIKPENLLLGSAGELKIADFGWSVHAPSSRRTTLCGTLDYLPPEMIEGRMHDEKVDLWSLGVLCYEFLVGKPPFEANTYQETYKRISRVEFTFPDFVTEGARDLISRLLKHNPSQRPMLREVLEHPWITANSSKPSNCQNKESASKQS
Put plainly: Ki determination for the inhibition of Aurora-2 (coupled enzyme assay). It counts as biochemical. Conditions: 70 nM Aurora-2, 30° C. A digest of the protocol: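 Ki came from reaction rates plotted against inhibitor concentration, with rates taken as A340 decrease over 5 min at 30° C. Enzyme (70 nM final) was added after 10 min compound preincubation; stock buffer held […], 800 μM LRRASLG, PK/LDH coupling, pH 7.5.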

For series [3], the target named is AKT-3 (Homo sapiens, UniProt Q9Y243). Put plainly: AKT inhibition assay (coupled enzyme assay). It is filed as biochemical. The settings on record: 45 nM AKT, 170 μM ATP, 30° C. The procedure: Compounds were screened for their ability to inhibit AKT using a standard coupled enzyme assay (Fox et al., Protein Sci., (1998) 7, 2249). Assays were carried out in a mixture of 100 mM HEPES 7.5, 10 mM MgCl2, 25 mM NaCl, 1 mM DTT and 1.5% DMSO. Final substrate concentrations in the assay were 170 μM ATP (Sigma Chemicals) and 200 μM peptide (RPRAATF, American Peptide, Sunnyvale, Calif.). Assays were carried out at 30° C. and 45 nM AKT. Final concentrations of the components of the coupled enzyme system were 2.5 mM phosphoenolpyruvate, 300 μM NADH, 30 μg/ML pyruvate kinase and 10 μg/ml lactate dehydrogenase.
An assay stock buffer solution was prepared containing all of the reagents listed above, with the exception of AKT, DTT, and the test compound of interest. 56 μl of the stock solution was placed in a 384 well plate followed by addition of 1 μl of 2 mM DMSO stock containing the test compound (final compound concentration 30 μM). The plate was preincubated for about 10 minutes at 30° C. and the reaction initiated by addition of 10 μl of enzyme (final concentration 45 nM) and 1 mM DTT. Rates of reaction were obtained using a BioRad Ultramark plate reader (Hercules, Calif.) over a 5 minute read time at 30° C.

The target of series [4] is CDK-2/Cyclin A (Homo sapiens, UniProt P24941). Put plainly: CDK-2 inhibition assay (coupled enzyme assay). It is filed as biochemical. The settings on record: 25 nM CDK-2/Cyclin A, 30° C. How it is done: Compounds were screened in the following manner for their ability to inhibit CDK-2 using a standard coupled enzyme assay (Fox et al (1998) Protein Sci 7, 2249).
To an assay stock buffer solution containing 0.1M HEPES 7.5, 10 mM MgCl2, 1 mM DTT, 25 mM NaCl, 2.5 mM phosphoenolpyruvate, […], 30 mg/ml pyruvate kinase, 10 mg/ml lactate dehydrogenase, 100 mM ATP, and 100 μM peptide ([…], American Peptide, Sunnyvale, Calif.) was added a DMSO solution of a compound of the present invention to a final concentration of 30 μM. The resulting mixture was incubated at 30° C. for 10 min.
The reaction was initiated by the addition of 10 μL of CDK-2/Cyclin A stock solution to give a final concentration of 25 nM in the assay. The rates of reaction were obtained by monitoring absorbance at 340 nm over a 5-minute read time at 30° C. using a BioRad Ultramark plate reader (Hercules, Calif.). The Ki values were determined from the rate data as a function of inhibitor concentration.

Series [5] concerns the target T2, GSK-3β (AA 1-420) (Homo sapiens, UniProt P49841).
T2 construct: GSK-3β (AA 1-420)
Put plainly: Ki determination for the inhibition of GSK-3 (coupled enzyme system). The settings on record: 20 μM ATP, 20 nM GSK-3β, 30° C. It counts as biochemical. Summed up: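 GSK-3β (AA 1-420, 20 nM) was run in a pyruvate kinase/LDH-coupled NADH assay in 100 mM HEPES pH 7.5, 10 mM MgCl2, 25 mM NaCl, 1 mM DTT, 1.5% DMSO, with 300 μM phosphopeptide substrate. Compound (0.002–30 μM) was preincubated 10 min at 30° C, then 20 μM ATP was added.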

T2 sequence (P49841 whole entry, the tested form may be a part): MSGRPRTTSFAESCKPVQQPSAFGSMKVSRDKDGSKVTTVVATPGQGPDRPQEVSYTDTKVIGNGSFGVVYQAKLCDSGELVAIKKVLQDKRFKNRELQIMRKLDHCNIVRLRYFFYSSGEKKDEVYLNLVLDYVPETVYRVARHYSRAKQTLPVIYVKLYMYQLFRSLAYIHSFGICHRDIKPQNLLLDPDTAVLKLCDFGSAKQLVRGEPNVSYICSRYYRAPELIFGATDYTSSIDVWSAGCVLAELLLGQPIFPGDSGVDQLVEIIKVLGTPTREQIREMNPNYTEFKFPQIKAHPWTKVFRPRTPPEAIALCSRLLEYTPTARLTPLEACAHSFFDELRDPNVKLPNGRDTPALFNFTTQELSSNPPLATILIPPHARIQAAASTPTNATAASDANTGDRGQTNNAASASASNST
Sequence of AKT-3 (Q9Y243 whole entry, species assumed): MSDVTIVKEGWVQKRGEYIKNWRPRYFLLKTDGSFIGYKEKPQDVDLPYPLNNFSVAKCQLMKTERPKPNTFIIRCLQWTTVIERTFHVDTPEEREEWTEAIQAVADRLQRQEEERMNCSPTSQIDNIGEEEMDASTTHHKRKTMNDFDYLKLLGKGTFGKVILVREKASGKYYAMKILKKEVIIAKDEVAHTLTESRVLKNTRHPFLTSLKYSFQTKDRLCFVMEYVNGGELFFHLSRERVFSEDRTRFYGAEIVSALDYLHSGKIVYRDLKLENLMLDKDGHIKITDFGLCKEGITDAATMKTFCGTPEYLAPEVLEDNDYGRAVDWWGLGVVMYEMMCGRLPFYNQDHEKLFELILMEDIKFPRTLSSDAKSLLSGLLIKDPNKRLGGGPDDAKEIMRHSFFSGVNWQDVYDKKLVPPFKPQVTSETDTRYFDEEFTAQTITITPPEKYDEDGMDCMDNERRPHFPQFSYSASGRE
Sequence of activated ERK2 (P28482 whole entry): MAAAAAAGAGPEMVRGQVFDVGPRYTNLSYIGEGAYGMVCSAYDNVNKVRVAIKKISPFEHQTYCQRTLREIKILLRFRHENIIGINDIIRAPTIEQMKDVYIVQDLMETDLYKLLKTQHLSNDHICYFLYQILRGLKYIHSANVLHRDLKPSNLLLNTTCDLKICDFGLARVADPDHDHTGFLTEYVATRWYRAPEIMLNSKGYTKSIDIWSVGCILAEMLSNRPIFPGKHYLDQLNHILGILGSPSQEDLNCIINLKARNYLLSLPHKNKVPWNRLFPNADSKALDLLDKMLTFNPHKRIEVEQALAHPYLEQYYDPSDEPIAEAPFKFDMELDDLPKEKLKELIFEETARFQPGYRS

Broadly, the melting point is the temperature of the solid-liquid transition. As usually defined, the pKi is −log10 of the Ki, conventionally taken in molar units. In turn, `c1ccc2c(Nc3cc(C4CC4)[nH]n3)nc(Nc3ccc4ncsc4c3)nc2c1` [IIc-32, [2-(Benzothiazol-6-ylamino)-quinazolin-4-yl]-(5-cyclopropyl-2H-pyrazol-3-yl)-amine] showed a melting point of 255 to 256 °C. Also, the pKi in series [1] was more than 6.00. Further, in series [2], the pKi was more than 7.00. In series [3], this compound gave a negative-log Ki (pKi) of 4.70 to 6.00. Also, the pKi in series [4] was more than 6.00. In addition, the pKi in series [5] is more than 7.00.
